Patent US20110262352A1, “ARYL PIPERAZINE AND THEIR USE AS ALPHA2C ANTAGONISTS” (priority 2008, published 2011)
Where two headings read alike, the source gives them in different places.

Experiments:
human alpha2C receptors = target: T1, human alpha2C receptors (Homo sapiens, UniProt P18825); assay: Determination of alpha2C antagonistic activity in vitro (intracellular calcium, FLIPR Calcium 3); format: cell-based
T1 construct: host or cells: Chinese hamster ovary (CHO) cells, cotransfected with pCEP-Gα16
T1 sequence (P18825 1-462): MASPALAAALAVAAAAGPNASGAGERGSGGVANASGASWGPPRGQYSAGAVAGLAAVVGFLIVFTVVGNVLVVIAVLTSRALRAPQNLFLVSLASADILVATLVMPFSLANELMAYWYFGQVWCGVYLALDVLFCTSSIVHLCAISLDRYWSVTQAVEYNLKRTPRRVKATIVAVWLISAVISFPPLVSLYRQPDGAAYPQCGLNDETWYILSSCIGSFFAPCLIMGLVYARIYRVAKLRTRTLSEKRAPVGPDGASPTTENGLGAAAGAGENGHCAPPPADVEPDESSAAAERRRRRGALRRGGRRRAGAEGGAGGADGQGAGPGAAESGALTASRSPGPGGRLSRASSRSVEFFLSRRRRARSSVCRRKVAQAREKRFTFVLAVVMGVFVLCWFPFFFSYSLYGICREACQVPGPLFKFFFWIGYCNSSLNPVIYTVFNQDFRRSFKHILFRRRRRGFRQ
Experimental: (§1) Experiment 1: Determination of alpha2A and alpha2C Antagonistic Activity In Vitro
(§2) Chinese hamster ovary (CHO) cells stably transfected with human alpha2A or alpha2C receptors (University of Turku, Finland) were cotransfected with the expression vector pCEP-Gα16 (Molecular Devices, CA, USA) were used in this experiment. The cells were maintained at 37° C. in a 5% CO2/95% air atmosphere. The cells were cultured in HAM F-12 medium supplemented with 10% FCS, 25 mM HEPES, 100 IU/ml penicillin, 100 μg/ml streptomycin, 500 μg/ml geneticin and 240 μg/ml hygromycin B. The cells were subcultured twice weekly with 0.25% trypsin and 1 mM EDTA. The subculture ratio was 1:5-1:20. The growth medium was changed every 2 or 3 days. All cell culture reagents were from Gibco. The day before the experiment the cells were plated into black-walled, clear bottom 96-well plates at a density of 30,000-45,000 cells/well.
(§3) The growth medium was removed and the cells were incubated with the test compounds and the FLIPR Calcium 3 Assay reagent (Molecular Devices, CA, USA) for 1 h at 37° C. in dark. The test compounds (concentrations in cells 100 pM-10 μM) were dissolved in Probenecid-Ringer consisting of 150 mM NaCl, 3 mM KCl, 1.2 mM MgCl2, 1 mM CaCl2, 5 mM glucose, 20 mM HEPES and 2.5 mM probenecid (pH 7.4 adjusted with 1.0 M NaOH). The osmolarity was adjusted to 322 milliosmoles with Osmostat® OM-6020 osmometer (DIC Kyoto Daiichi Kagagu Co. Ltd, Japan). […] All experiments were performed at 37° C. The test compounds dissolved in Probenecid-Ringer were applied by FLEX station at 17 s time point. […] In order to determine antagonism, the cells were stimulated either with 100 nM adrenaline or 200 nM noradrenaline and the test compounds were added to the cells at least 5 min before the experiment. Typically, there were four replicates at each concentration and seven different dose levels. For example, if the number of plates from which results were obtained was three, 84 (4*7*3) wells were thus measured to construct dose-response relationship. The samples were excited at 485 nm and emission was detected at 525 nm with a 515 nm cut-off filter. Reading time was 60 s per well and the photomultiplier sensitivity value was set to 15. The minimum fluorescence value subtracted from the maximum value for each well was used in the calculations. SOFTmax PRO version 3.2 software was used for analyzing the results. Fitting of the antagonist dose-response results was performed with the free Hill equation and the IC50 values were fitted with Michaelis-Menten equation in Sigma Plot 8.0.

human alpha2A receptors = target: T2, human alpha2A receptors (Homo sapiens, UniProt P08913); assay: Determination of alpha2A antagonistic activity in vitro (intracellular calcium, FLIPR Calcium 3); format: cell-based; conditions: CHO cells stably transfected with human alpha2A receptor and Gα16; stimulated with 100 nM adrenaline or 200 nM noradrenaline; 37° C.
T2 construct: host or cells: Chinese hamster ovary (CHO) cells, cotransfected with pCEP-Gα16
T2 sequence (P08913 1-465): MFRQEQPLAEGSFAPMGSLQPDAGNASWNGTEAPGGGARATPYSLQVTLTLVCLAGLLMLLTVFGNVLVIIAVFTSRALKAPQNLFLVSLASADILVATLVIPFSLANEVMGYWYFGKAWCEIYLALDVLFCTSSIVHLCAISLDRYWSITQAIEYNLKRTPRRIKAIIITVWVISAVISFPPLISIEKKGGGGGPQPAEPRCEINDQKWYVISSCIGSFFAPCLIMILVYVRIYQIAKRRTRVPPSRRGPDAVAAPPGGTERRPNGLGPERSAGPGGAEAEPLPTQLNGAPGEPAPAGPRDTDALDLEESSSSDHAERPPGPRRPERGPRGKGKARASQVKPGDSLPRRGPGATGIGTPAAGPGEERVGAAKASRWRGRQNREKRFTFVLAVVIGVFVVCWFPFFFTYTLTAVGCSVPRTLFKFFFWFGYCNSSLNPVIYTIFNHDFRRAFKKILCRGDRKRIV
Experimental: as §1, §2, §3

[1] = CHO cells stably transfected with human alpha2C receptor and Gα16, stimulated with 100 nM adrenaline or 200 nM noradrenaline, 37° C., read-out: IC50/nM Alpha2C

| SMILES | IC50 (human alpha2C receptors; [1]) | IC50 (human alpha2A receptors) | IC50 (human alpha2C receptors) |
| --- | --- | --- | --- |
| COCc1ccccc1N1CCN(C[C@H]2COc3ccccc3O2)CC1 [Example 17, (S)-1-((2,3-Dihydrobenzo[b][1,4]dioxin-2-yl)methy)-4-(2-(methoxymethyl)phenyl)piperazine] | 8.2 nM | 2180 nM |  |
| COCc1ccccc1N1CCN(C[C@@H]2COc3ccccc3O2)CC1 [Example 18, (R)-1-((2,3-Dihydrobenzo[b][1,4]dioxin-2-yl)methyl)-4-(2-(methoxymethyl)phenyl)piperazine] | 134 nM | 41100 nM |  |
| OCc1c(F)cccc1N1CCN(CC2COc3ccccc3O2)CC1 (stereo not drawn) [Example 23, (2-(4-((2,3-Dihydrobenzo[b][1,4]dioxin-2-yl)methyl)piperazin-1-yl)-6-fluorophenyl)methanol] | 30.6 nM | 10700 nM |  |
| c1coc(-c2ccccc2N2CCN(C[C@H]3COc4ccccc4O3)CC2)c1 [Example 29, (S)-1-((2,3-Dihydrobenzo[b][1,4]dioxin-2-yl)methyl)-4-(2-(furan-2-yl)phenyl)piperazine] | 18 nM | 12700 nM |  |
| Cc1ccccc1N1CCN(C[C@H]2COc3ccccc3O2)CC1 [Example 31, (S)-1-((2,3-Dihydrobenzo[b][1,4]dioxin-2-yl)methyl)-4-o-tolylpiperazine] |  | 16900 nM | 17.6 nM |
| COC(=O)c1ccccc1N1CCCN(CC2COc3ccccc3O2)CC1 (stereo not drawn) [Example 36, Methyl 2-(4-((2,3-dihydrobenzo[b][1,4]dioxin-2-yl)methyl)-1,4-diazepan-1-yl)benzoate] | 13.7 nM | 3900 nM |  |
